These results are taken from US20110250254A1, “ANTIMICROBIAL COMPOSITIONS AND USES” (priority 2008, published 2011).

SMILES strings stand for the structures. Where two headings read alike, the source gives them in different places.

Assay type in all cases: cell-based
Experiment [1] concerns V. harveyi. Briefly: Biofilm formation on peggs, Calgary method. Particulars: for Effect on V. harveyi biofilm: in words. How it is done: (§1) Biofilm formation was measured in static cultures in wells of microtiter plates for S. epidermidis, or on “peggs” according to the Calgary method (The Calgary biofilm devices: New technology for rapid determination of antibiotic susceptibilities of bacterial biofilms. Ceri et al. J Clin Microbiol 1999:37:1771-1776) for V. harveyi. In both cases the safranin staining method was applied and optical density was measured at 530 nm for quantification of biofilm mass.

The test system of experiment [2] is V. harveyi. Briefly: Planktonic growth in Low Binding Plates, OD 600 nm. As to conditions: for V. harveyi planktonic bacteria reduction: 100 μM; for Effect on V. harveyi planktonic growth: in words. How it is done: (§2) Planktonic growth was determined in “Low Binding Plates” in which the bacteria form minimal amounts of biofilm The quantity is determined by optical density measurements at 600 nm.

Experiment [3] concerns S. epidermidis. Briefly: Planktonic growth in Low Binding Plates, OD 600 nm. How it is done: as §2
Experiment [4] concerns S. epidermidis. Briefly: Biofilm formation in static cultures in wells of microtiter plates. As for the experimental part:
as §1

Experiment [5] has as its system S. epidermidis. Briefly: Static biofilm model on coated glass vials. As to conditions: incubation time 5 h, coating on glass vial. As for the experimental part: The materials of Example 3 were tested in a static biofilm model as follows.
Triplicate samples of a coating composition were applied to a glass vial in accordance with Table 2 set out below where each vial is given a number. Vials 1 to 12 are each loaded with 13 mg of the indicated material, followed by the addition of 1.0 mL dichloromethane. The dichloromethane was slowly evaporated under atmospheric pressure to leave a coating on the internal walls of the receptacles. Vials 13 to 18 were each loaded by adding 10 mg of the indicated material pre-dissolved in 10 mL dichloromethane. These vials were heated in an oven at 125° C. for 24 hours. To remove any residues of the dichloromethane solvent, all vials were dried at high vacuum (0.5 mmHg) for 2 hours at room temperature.
The biofilm was assessed as described in Example 2.
It is possible in the example of the copolymer of C and D that bacteria are killed in addition to the inhibition of biofilm formation. Similar results were obtained in a static biofilm model where S. epidermis bacteria were incubated over a time period of 5 hours.

For experiment [6], the system named is S. epidermidis. The experiment is described as follows: Static biofilm model, safranine staining. Particulars: 6 h incubation, thiophenone 200 μmol/L coating. As for the experimental part:
(§3) According to the static biofilm model, a given thiophenone 200 μmol/L was dissolved in 500 μl absolute ethanol and applied to wells of a standard 24 well microtiter plate. The ethanol was evaporated from the wells in a laminar air sterile work bench at room temperature so as to leave a coating of the thiophenone in the well. A sample of bacteria was then added to the well and incubated for a given period of time. After incubation, the percentage of bacteria remaining was assessed by safranine staining of the biofilm. Bound safranine was released by acetic acid and optical density was measured in Synergy HT Multi-Detection Microplate Reader and compared to a control.

Experiment [7] relates to S. epidermidis. The experiment is described as follows: Shaking biofilm model (200 rpm), safranine staining. As to conditions: Staphylococcus epidermidis, read-out: Shaking biofilm model % Remaining. As for the experimental part:
as §3
According to the shaking biofilm model, the microtiter plates were shaken (200 rpm) in a Minitron Incubator Shaker during biofilm formation.

The mark [8] stands for this setting: S. epidermidis, 20 h incubation.

In the case of `O=C(O)CCC(=O)OCC1=C/C(=C/Br)SC1=O`, the “V. harveyi biofilm reduction” value stood at 17% in the experiment with V. harveyi [1] (5 μM), 70% in the experiment with V. harveyi [1] (50 μM) and 85% in the experiment on V. harveyi [1] (100 μM). In addition, the “V. harveyi planktonic bacteria reduction” value in the experiment on V. harveyi [2] is reported as 18%.

`O=C1C=C/C(=C/I)S1`: the “V. harveyi biofilm reduction” value worked out at 46% in the experiment on V. harveyi [1] (5 μM), 80% with V. harveyi [1] (10 μM) and 95% in the experiment with V. harveyi [1] (15 μM). Moreover, the results for the “S. epidermis planktonic bacterial growth reduction” value in the experiment with S. epidermidis [3] (50 μM) and in the experiment with S. epidermidis [3] (100 μM) were 50% and 63%, respectively. The “S. epidermis biofilm reduction” value turned out to be 50% in the experiment on S. epidermidis [4] (50 μM) and 64% in the experiment with S. epidermidis [4] (100 μM).

With `N#CS/C=C1/C=CC(=O)S1`, the “V. harveyi biofilm reduction” value with V. harveyi [1] (25 μM) amounted to 90%. In addition, the “S. epidermis planktonic growth reduction” value in the experiment on S. epidermidis [3] (concentrations from 25 μM) came out at 70%. For the same compound, in the experiment with V. harveyi [2] (25 μM), the “V. harveyi planktonic reduction” value was 50%.

On to `CCN(/C=C1/C=CC(=O)S1)CC`, for which, in the experiment with V. harveyi [1], the “Effect on V. harveyi biofilm” value is listed as “No effect”. In the experiment on V. harveyi [2], the “Effect on V. harveyi planktonic growth” value is reported as “No effect”.

Regarding `O=C1C=C/C(=C/Oc2ccc([N+](=O)[O-])cc2)S1`, the “Effect on S. epidermis planktonic growth” value with S. epidermidis [3] (in words) was “No effect”. In addition, the “Effect on S. epidermis biofilm” value in the experiment with S. epidermidis [4] (in words) is reported as “No effect”.

On to `COc1ccc(C2CSC(=O)C2)s1` (stereo not drawn), for which, in the experiment on V. harveyi [1], the “Effect on V. harveyi biofilm” value is listed as “No effect”. Moreover, the “Effect on V. harveyi planktonic growth” value in the experiment on V. harveyi [2] is “No effect”.

As to `O=C1S/C(=C\Br)C=C1c1cccs1` [(Z)-5-(bromomethylene)-3-(thiophen-2-yl)thiophen-2(5H)-one], in the experiment on V. harveyi [2], the “V. harveyi planktonic bacteria reduction” value was found to be 30%.

Turning to `CCO[Si](CCCNC(=O)OCc1ccccc1)(OCC)OCC` [Benzyl 3-(triethoxysilyl)propylcarbamate, reference compound], the “Static biofilm model % Remaining” value with S. epidermidis [5] came to 100%.

Turning to `COc1ccc(CC2(CO)C=CC(=O)S2)s1` (stereo not drawn) [Thi401, 5-(hydroxymethyl)-5-((5-methoxythiophen-2-yl)methyl)thiophen-2(5H)-one], the “Static biofilm model % Remaining” value in the experiment with S. epidermidis [6] came to 51%. For the same compound, the activity at 200 µM with S. epidermidis [7] (S. epidermidis, 6 h incubation) came to 80%; in the experiment on S. epidermidis [7] (setting [8]) it was 94%.

Turning to `O=C1C=C/C(=C\Br)S1` [Thio102, (E)-5-(bromomethylene) thiophen-2(5H)-one], the “Static biofilm model % Remaining” value in the experiment with S. epidermidis [6] worked out at 95%. Moreover, the activity at 200 µM came to 91% with S. epidermidis [7] (S. epidermidis, 6 h incubation) and 103% with S. epidermidis [7] (setting [8]).

Consider `O=C1C=C/C(=C/Cl)S1` [Thio103, (Z)-5-(chloromethylene) thiophen-2(5H)-one], for which the “Static biofilm model % Remaining” value with S. epidermidis [6] stood at 32%. Besides, the figures for the activity at 200 µM in the experiment with S. epidermidis [7] (6 h) and in the experiment on S. epidermidis [7] (20 h) were 92% and 96%, respectively.

Regarding `CC(=O)O/C=C1/C=CC(=O)S1` [Thio104, (Z)-(5-oxothiophen-2(5H)-ylidene)methyl acetate], in the experiment with S. epidermidis [6], the “Static biofilm model % Remaining” value is listed as 34%. Besides, the activity at 200 µM in the experiment with S. epidermidis [7] (6 h) turned out to be 106%; in the experiment on S. epidermidis [7] (20 h), 103%.

On to `O=C1S/C(=C\Br)C=C1Br` [Thio105, (Z)-3-bromo-5-(bromomethylene)thiophen-2(5H)-one], for which the activity at 200 µM with S. epidermidis [7] (S. epidermidis, 6 h incubation) is 20%; in the experiment with S. epidermidis [7] (setting [8]), 18%.

Turning to `O=C1C=CC(=C(Br)Br)S1` [Thio106, 5-(dibromomethylene)thiophen-2(5H)-one], the activity at 200 µM in the experiment with S. epidermidis [7] (S. epidermidis, 6 h incubation) was found to be 11%; with S. epidermidis [7] (setting [8]), 27%.

On to `O=C1C=C/C(=C/C(Br)Br)S1` [Thio107, (Z)-5-(2,2-dibromoethylidene) thiophen-2(5H)-one], for which the activity at 200 µM in the experiment on S. epidermidis [7] (S. epidermidis, 6 h incubation) stood at 77%; with S. epidermidis [7] (setting [8]), 93%.

Consider `O=C1SC(=C(Br)Br)C=C1Br` [Thio108, 3-bromo-5-(dibromomethylene)thiophen-2(5H)-one], for which the activity at 200 µM in the experiment with S. epidermidis [7] (S. epidermidis, 6 h incubation) was determined as 1%; in the experiment with S. epidermidis [7] (setting [8]), 9%.

Consider `O=C1C=C/C(=C/c2ccccc2)S1` [Thio109, (Z)-5-benzylidenethiophen-2(5H)-one], for which the activity at 200 µM with S. epidermidis [7] (S. epidermidis, 6 h incubation) came to 98%; in the experiment on S. epidermidis [7] (setting [8]) it was 107%.

On to `O=C1S/C(=C\c2ccccc2)C=C1Br` [Thio110, (Z)-5-benzylidene-3-bromothiophen-2(5H)-one], for which the activity at 200 µM in the experiment with S. epidermidis [7] (S. epidermidis, 6 h incubation) was determined as 30%; with S. epidermidis [7] (setting [8]), 27%.

Turning to `O=C1C=C/C(=C(\Br)c2ccccc2)S1` [Thio111, (E)-5-(bromo(phenyl)methylene) thiophen-2-(5H)-one], the activity at 200 µM came out at 63% in the experiment on S. epidermidis [7] (S. epidermidis, 6 h incubation) and 50% in the experiment with S. epidermidis [7] (setting [8]).

With `O=C1C=C/C(=C(/Br)c2ccccc2)S1` [Thio112, (Z)-5-(bromo(phenyl)methylene) thiophen-2(5H)-one], the activity at 200 µM in the experiment with S. epidermidis [7] (S. epidermidis, 6 h incubation) is 63%; in the experiment with S. epidermidis [7] (setting [8]), 59%.

Turning to `COc1ccc(C=O)s1` [Thio201, 5-methoxythiophene-2-carbaldehyde], the “Static biofilm model % Remaining” value with S. epidermidis [6] came out at 56%. Further, the activity at 200 µM in the experiment with S. epidermidis [7] (S. epidermidis, 6 h incubation) came out at 81%; with S. epidermidis [7] (setting [8]) it was 101%.

As to `COc1ccc(C=C(Br)Br)s1` [Thio202, 2-(2,2-dibromovinyl)-5-methoxythiophene], the activity at 200 µM is 94% with S. epidermidis [7] (S. epidermidis, 6 h incubation) and 103% with S. epidermidis [7] (setting [8]).

For the compound `O=C1C=C/C(=C/c2cccs2)S1` [Thio301, (Z)-5-(thiophen-2-ylmethylene) thiophen-2(5H)-one], the activity at 200 µM was 80% with S. epidermidis [7] (S. epidermidis, 6 h incubation) and 98% with S. epidermidis [7] (setting [8]).

Consider `O=C1C=C/C(=C/c2ccc(Br)s2)S1` [Thio302, (Z)-5-((5-bromothiophen-2-yl)methylene)thiophen-2(5H)-one], for which the activity at 200 µM with S. epidermidis [7] (S. epidermidis, 6 h incubation) was determined as 98%; in the experiment on S. epidermidis [7] (setting [8]), 101%.

Regarding `O=Cc1ccc(/C=C2/C=CC(=O)S2)s1` [Thio303, (Z)-5-((5-oxothiophen-2(5H)-ylidene)methyl)thiophene-2-carbaldehyde], the activity at 200 µM was determined as 95% in the experiment with S. epidermidis [7] (S. epidermidis, 6 h incubation) and 91% in the experiment on S. epidermidis [7] (setting [8]).

`COc1ccc(/C=C2/C=CC(=O)S2)s1` [Thio304, (Z)-5-((5-methoxythiophen-2-yl)methylene)thiophen-2(5H)-one]: the activity at 200 µM is 72% with S. epidermidis [7] (S. epidermidis, 6 h incubation) and 94% with S. epidermidis [7] (setting [8]).

Regarding `COc1sc(/C=C2/C=CC(=O)S2)c(Br)c1Br` [Thio305, (Z)-5-((3,4-dibromo-5-methoxythiophen-2-yl)methylene)thiophen-2(5H)-one], the activity at 200 µM in the experiment with S. epidermidis [7] (S. epidermidis, 6 h incubation) amounted to 66%; with S. epidermidis [7] (setting [8]), 101%.

Turning to `O=C1C=C/C(=C/c2ccc(-c3cccs3)s2)S1` [Thio306, (Z)-5-(2,2′-bithiophen-5-ylmethylene) thiophen-2(5H)-one], in the experiment on S. epidermidis [6], the “Static biofilm model % Remaining” value amounted to 67%.
